Data published in article PMC1459931, “Assessment of Xenoestrogens Using Three Distinct Estrogen Receptors and the Zebrafish Brain Aromatase Gene in a Highly Responsive Glial Cell System” (Environmental Health Perspectives, 2005).

Columns and labels:
Test in all cases: luciferase reporter transactivation (zebrafish Aro-B promoter) in transfected U251-MG cells
Format in all cases: cell-based
Settings in all cases: agonist; 48 hr, 37°C, 2% charcoal/dextran FCS
[1] = target: T1, zfER-β2 (zebrafish ER-β2) (Danio rerio, UniProt Q7ZU32)
T1 construct: gene esr2a; coding region of receptor cDNA in Topo-pcDNA3 (Menuet et al. 2002), transiently expressed in human U251-MG glial cells; approx. 65 kDa; ER-β2 of Menuet et al. corresponds to esr2a (esr2b is ER-β1)
Description: luciferase reporter transactivation (zebrafish Aro-B promoter) in transfected U251-MG cells on zfER-β2 (zebrafish ER-β2)

zfER-α (zebrafish ER-α) = target: T2, zfER-α (zebrafish ER-α) (Danio rerio, UniProt P57717)
T2 construct: gene esr1; coding region of receptor cDNA in Topo-pcDNA3 (Menuet et al. 2002), transiently expressed in human U251-MG glial cells; approx. 65 kDa in vitro translated
T2 sequence (P57717 1-569): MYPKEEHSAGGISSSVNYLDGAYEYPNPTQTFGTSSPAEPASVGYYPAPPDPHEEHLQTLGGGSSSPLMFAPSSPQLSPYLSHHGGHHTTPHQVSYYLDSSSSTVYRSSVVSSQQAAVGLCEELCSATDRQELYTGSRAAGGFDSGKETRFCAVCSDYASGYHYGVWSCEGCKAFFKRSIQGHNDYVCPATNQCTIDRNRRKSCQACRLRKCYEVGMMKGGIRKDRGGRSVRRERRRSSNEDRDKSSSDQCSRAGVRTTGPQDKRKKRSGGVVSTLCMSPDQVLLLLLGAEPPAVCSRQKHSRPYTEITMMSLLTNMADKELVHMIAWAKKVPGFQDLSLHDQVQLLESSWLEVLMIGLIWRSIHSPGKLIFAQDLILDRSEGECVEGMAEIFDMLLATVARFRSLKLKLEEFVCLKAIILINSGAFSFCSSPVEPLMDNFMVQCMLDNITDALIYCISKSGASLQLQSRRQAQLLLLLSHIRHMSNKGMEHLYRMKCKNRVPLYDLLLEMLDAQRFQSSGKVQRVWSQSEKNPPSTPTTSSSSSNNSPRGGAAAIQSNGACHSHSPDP
Description: luciferase reporter transactivation (zebrafish Aro-B promoter) in transfected U251-MG cells on zfER-α (zebrafish ER-α)

[2] = target: T3, zfER-β1 (zebrafish ER-β1) (Danio rerio, UniProt Q5PR29)
T3 construct: gene esr2b; coding region of receptor cDNA in Topo-pcDNA3 (Menuet et al. 2002), transiently expressed in human U251-MG glial cells; approx. 65 kDa; ER-β1 of Menuet et al. corresponds to esr2b (esr2a is ER-β2)
T3 sequence (Q5PR29 1-592): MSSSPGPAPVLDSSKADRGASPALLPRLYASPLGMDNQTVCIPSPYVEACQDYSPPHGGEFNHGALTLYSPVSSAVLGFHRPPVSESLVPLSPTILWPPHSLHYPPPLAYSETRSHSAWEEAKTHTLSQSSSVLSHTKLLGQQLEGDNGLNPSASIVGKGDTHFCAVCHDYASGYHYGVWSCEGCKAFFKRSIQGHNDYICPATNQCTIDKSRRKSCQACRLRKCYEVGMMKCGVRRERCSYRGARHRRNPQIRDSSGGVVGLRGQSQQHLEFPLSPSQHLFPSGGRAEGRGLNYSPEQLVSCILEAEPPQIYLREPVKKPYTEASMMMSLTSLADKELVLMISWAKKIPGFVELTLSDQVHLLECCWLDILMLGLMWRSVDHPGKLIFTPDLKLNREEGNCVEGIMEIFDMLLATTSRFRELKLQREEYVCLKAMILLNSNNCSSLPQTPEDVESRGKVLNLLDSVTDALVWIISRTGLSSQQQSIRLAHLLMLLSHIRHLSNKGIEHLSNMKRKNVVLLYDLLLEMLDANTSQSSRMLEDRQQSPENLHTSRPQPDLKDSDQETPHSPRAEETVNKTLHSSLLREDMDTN
Description: luciferase reporter transactivation (zebrafish Aro-B promoter) in transfected U251-MG cells on zfER-β1 (zebrafish ER-β1)

T1 sequence (Q7ZU32 1-553): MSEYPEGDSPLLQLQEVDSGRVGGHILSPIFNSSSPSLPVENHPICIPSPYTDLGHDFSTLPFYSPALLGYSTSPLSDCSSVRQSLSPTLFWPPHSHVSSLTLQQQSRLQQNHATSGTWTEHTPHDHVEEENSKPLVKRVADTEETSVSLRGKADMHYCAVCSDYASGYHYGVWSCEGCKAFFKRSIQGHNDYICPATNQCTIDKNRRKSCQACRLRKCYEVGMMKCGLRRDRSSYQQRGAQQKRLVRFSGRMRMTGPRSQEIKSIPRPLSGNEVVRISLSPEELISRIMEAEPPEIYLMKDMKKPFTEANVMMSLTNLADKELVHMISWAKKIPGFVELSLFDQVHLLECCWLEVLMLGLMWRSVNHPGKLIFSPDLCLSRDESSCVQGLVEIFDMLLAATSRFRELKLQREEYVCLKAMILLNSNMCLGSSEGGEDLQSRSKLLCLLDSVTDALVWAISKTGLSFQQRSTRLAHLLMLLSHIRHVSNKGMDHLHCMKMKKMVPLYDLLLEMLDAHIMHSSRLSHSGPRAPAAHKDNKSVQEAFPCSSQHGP

## C[C@H]1CCC[C@H](O)CCC/C=C/c2cc(O)cc(O)c2C(=O)O1 [α-Zeralenol]
[1]
  EC50: 0.15 nM
zfER-α (zebrafish ER-α)
  EC50: 0.59 nM
[2]
  EC50: 0.11 nM
